# From article PMC2949076 (Journal of clinical immunology, 2010)
# Where “and” joins values, the source holds several entries; their conditions need not be identical. Equal values may be shown once.
# Tests used:
# [1] = test system: CD8+ T cells in PBMC; format: cell-based, human
# [2] = test system: CD8+ T cells in PBMC; test: Granzyme B and perforin detection by flow cytometry; format: cell-based, human
substance,measurement,setting,value
staphylococcal enterotoxin B [SEB],"CD107a mobilization, monofunctional vs polyfunctional cells",[1],increases were observed
same,IFN-γ-level change in polyfunctional cells,[1],increases in IFN-γ observed
same,CD8+ T cells lacking granule proteins,[2],58% and 44.5–70.9%
